{"source": "patent US9173875B2", "about": "“Treatment for nicotine-induced lung disease using peroxisome proliferator-activated receptor gamma agonists” (Los Angeles Biomedical Research Institute at Harbor-UCLA …, priority 2006, dated 2015)", "key": {"[1]": {"molecular_target": "T1, PTHrP receptor (Homo sapiens, UniProt Q03431)", "T1 construct": "10-12 μg membrane protein; endogenous in cells; host or cells: WI38 human embryonic lung fibroblasts (inferred; the assay text only says membrane protein)", "T1 sequence (Q03431 27-593)": "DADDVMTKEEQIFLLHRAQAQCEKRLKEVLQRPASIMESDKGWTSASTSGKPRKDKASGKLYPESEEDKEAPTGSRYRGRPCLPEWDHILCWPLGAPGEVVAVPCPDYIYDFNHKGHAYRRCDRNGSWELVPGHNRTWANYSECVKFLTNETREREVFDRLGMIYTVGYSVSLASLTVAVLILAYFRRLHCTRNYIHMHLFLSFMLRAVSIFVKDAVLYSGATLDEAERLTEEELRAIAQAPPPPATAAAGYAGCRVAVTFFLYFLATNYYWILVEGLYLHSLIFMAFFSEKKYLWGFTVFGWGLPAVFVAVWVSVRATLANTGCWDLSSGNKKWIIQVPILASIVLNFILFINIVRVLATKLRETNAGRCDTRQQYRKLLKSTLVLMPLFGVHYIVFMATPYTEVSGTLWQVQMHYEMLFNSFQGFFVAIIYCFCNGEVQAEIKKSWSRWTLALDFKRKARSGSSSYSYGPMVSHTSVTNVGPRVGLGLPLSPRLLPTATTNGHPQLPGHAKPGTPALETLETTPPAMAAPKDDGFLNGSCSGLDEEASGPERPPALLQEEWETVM", "test": "PTHrP receptor binding assay", "experimental": "The receptor binding assay was carried out as previously described (Torday and Rehan (2002) Am. J. Physiol. Lung Cell Mol. Physiol. 283: L130-L135; Torday and Rehan (2003) Cell Biochem Biophys 37: 235-246). The assay mixture, in a total volume of 0.1 ml, contained 50 mM Tris.HCl (pH 7.4), 2 mM dithiothreitol, 10 mM EDTA, 10 μg/ml each of protease inhibitors (leupeptin, pepstatin, antipain, and aprotinin), 0.5 mM phenylmethylsulfonyl fluoride, 10 mg/ml BSA, 5 mM MgCl2, […] [1251]-Tyr34-PTHrP-(1-34) (specific activity 1,064 Ci/mmol), 10-12 μg membrane protein, and 1×10-10 to 1×10^−6 M PTHrP-(1-34). Triplicate samples were incubated for 30 min at 30° C. Reactions were stopped by the addition of 0.1 ml of homogenization buffer containing 20 mg/ml of BSA and placed in ice-cold water for 30 min, followed by centrifugation at 15,000 g for 1 min. The supernatant was aspirated, and the pellet was counted for radioactive content with a gamma counter (model 1470; Wallace, Gaithersburg, Md.). Nonspecific binding was determined in the presence of 1 μM nonradioactive PTHrP-(1-34). Specific binding of [^125I]-Tyr34-PTHrP-(1-34) was calculated as total binding minus nonspecific binding and expressed as femtomoles per milligrams of protein. […] The effect of nicotine (1×10^−6 M) on PTHrP receptor binding was examined without and with the nACh receptor antagonists D-tubocurarine, α-bungarotoxin, or mecamylamine (1×10^−9 to 1×10^−6 M)."}, "[2]": {"system": "WI38 cells", "test": "Triglyceride uptake assay ([3H]triolein) in WI38 cells", "assay_type": "cell-based, human", "experimental": "The human embryonic cell line WI38 was obtained from American Type Culture Collection (Rockville, Md.). Cells were grown in MEM plus 10% FBS at 37° C. in six-well plates, four-well slides, and 60- and 100-mm culture dishes as needed.\nThe method used to quantitate triglyceride uptake by fetal rat lung fibroblasts has been described previously (Torday et al. (1995) Biochim Biophys Acta 1254: 198-206). Briefly, culture medium was replaced with DMEM containing 20% adult rat serum mixed with [3H]triolein (5 μCi/ml). The cells were incubated at 37° C. in 5% CO2+balance air for 4 h. At the termination of the incubation, the medium was decanted, the cells were rinsed twice with 1 ml of ice-cold MEM, and the cells were removed from the culture plate after a 5- to 10-min incubation with 2 ml of a 0.05% trypsin solution. An aliquot of the cell suspension was taken for protein assay (Bradford (1976) Anal Biochem 72: 248-254), and the remaining cell suspension was extracted for neutral lipid content."}, "[3]": {"system": "ATII cells", "test": "Western analysis of CCT-α and SP-B in ATII cells treated in vitro", "assay_type": "cell-based, rat", "experimental": "Protein extraction and Western blot analysis for SP-B and choline phosphate cytidylyltransferase-α (CCT-α) were performed using standard methods. […] Equal amounts of the protein from the supernatant were dissolved in electrophoresis sample buffer and subjected to SDS-polyacrylamide (4-12% gradient) gel electrophoresis followed by electrophoretic transfer to a nitrocellulose membrane. The membrane was blocked with 5% milk in 1× Tris-buffered saline containing 0.1% Tween 20 for 1 h and then incubated with rabbit anti-human SP-B polyclonal antibody (1:1,000 dilution; Chemicon) overnight at 4° C. The antibody for CCT-α (1:2,000 dilution) was a kind gift from Dr. Mallampalli (University of Iowa, Iowa City, Iowa). Subsequently, the membrane was washed with 1× Tris-buffered saline+0.1% Tween 20 and incubated with a 1:3,000 dilution of anti-rabbit horseradish peroxidase-linked whole antibody immunoglobulin G (Amersham, Arlington Heights, Ill.) for 1 h at room temperature, washed again, and developed with a chemiluminescent substrate (ECL, Amersham) following the manufacturer's protocol. The density of the SP-B and CCT-α bands was quantified using a scanning densitometer (Eagle Eye, Stratagene)."}, "[4]": {"system": "ATII cells", "test": "Phospholipid synthesis ([3H]choline incorporation) by ATII cells treated in vitro", "assay_type": "cell-based, rat", "protocol": "Isolated ATII cells were cultured in DMEM+10% FBS in 6- and 96-well plates, 100-mm dishes, and T-75 flasks, as needed, and maintained at 37° C. in a humidified incubator containing 5% CO2-95% air. At 80-90% confluence, cells were processed for cell proliferation, differentiation, and metabolic studies (see below).\n(§1) Incorporation of [methyl-3H]choline chloride (NEN Dupont) into saturated phosphatidylcholine was determined in monolayers of cultured explants and ATII cells. […] After incubation, explants and cells were washed three times with ice-cold PBS. The explants and the scraped cells were thoroughly homogenized, and the cellular lipids were extracted with chloroform-methanol (2:1) (Bligh and Dyer (1959) Can. J. Biochem. Physiol., 37: 911-917). The organic phase was dried under a stream of nitrogen at 60° C., resuspended in 0.5 ml of carbon tetrachloride containing 3.5 mg of osmium tetroxide, and left at room temperature for 15 min. The reaction mixture was redried under nitrogen and resuspended in 70 μl of chloroform-methanol (9:1, vol/vol). The lipid extracts were transferred to silica gel plates (Kodak, Rochester, N.Y.) and developed in a chloroform-methanolwater (65:25:4) solvent system. Pure dipalmitoyl phosphatidylcholine was used as the chromatographic standard. The developed plates were stained with bromothymol blue, blotted, and vacuum dried for 5 min at 90° C. Chromatogram spots corresponding to the migration of saturated phosphatidylcholine were scraped from the plates and counted by liquid scintillation spectrometry. The amounts of [methyl^3H]choline chloride incorporated into saturated phosphatidylcholine were expressed as disintegrations per minute per milligram of protein."}, "[5]": {"system": "fetal rat lung explants", "test": "In vitro ATII cell proliferation in lung explants (PCNA and SP-C labeling)", "assay_type": "cell-based", "protocol": "Explants derived from three to five litters of rats were used for each experiment during the course of the studies. Lungs were harvested from fetal rats under sterile conditions. The lung tissue was chopped into −1-mm cubes and incubated in 0.5 ml of Waymouth's MB-252/1 medium containing penicillin (100 U/ml)-streptomycin (100 U/ml) and Fungizone (2.5 μg/ml) in six-well plates while rocking on an oscillating platform (3 cycles/min) in 5% CO2-95% air at 37° C. The explants were allowed to attach for 1-2 h.\nCultured ATII cells or explants were treated with nicotine under various experimental conditions (see below), and cell proliferation was determined by Cell Proliferation Assay (Promega) or dual PCNA and SP-C labeling, respectively (see above)."}, "[6]": {"system": "ATII cells", "test": "Phospholipid synthesis ([3H]choline incorporation into saturated phosphatidylcholine) by ATII cells after in utero nicotine", "assay_type": "in vivo, Sprague-Dawley rat", "protocol": "as §1"}, "[7]": {"system": "ATII cells", "test": "Western analysis of CCT-α and SP-B in ATII cells after in utero nicotine", "assay_type": "in vivo, Sprague-Dawley rat", "experimental": "Pathogen-free timed (embryonic day 0=day of mating) pregnant Sprague-Dawley rats (200-250 g body wt) were obtained from Charles River (Hollister, Calif.) at embryonic day 3 and allowed to acclimatize until embryonic day 6. […] The fetuses were extracted by cesarean section, and the lungs were snap frozen for later analysis or processed for ATII cell or fibroblast culture. […] Louis, Mo.; 0.25 mg/kg). All studies were approved by the Los Angeles Biomedical Research Institute Institutional Review Board and were conducted in accordance with the National Institutes of Health Guide for the Care and Use of Laboratory Animals. Protein extraction and Western blot analysis for SP-B and choline phosphate cytidylyltransferase-α (CCT-α) were performed using standard methods. […] Chemicon) overnight at 4° C. The antibody for CCT-α (1:2,000 dilution) was a kind gift from Dr. […] (University of Iowa, Iowa City, Iowa). […] The density of the SP-B and CCT-α bands was quantified using a scanning densitometer (Eagle Eye, Stratagene)."}, "[8]": {"system": "fetal alveolar type II (ATII) cells", "test": "In vivo ATII cell proliferation assay (PCNA and SP-C double labeling) after in utero nicotine", "design": "species or system Sprague-Dawley rat"}, "[9]": {"system": "fetal ATII cells", "test": "Ex vivo ATII cell proliferation assay (tetrazolium dye) after in utero nicotine", "design": "species or system Sprague-Dawley rat", "experimental": "Pathogen-free timed (embryonic day 0=day of mating) pregnant Sprague-Dawley rats (200-250 g body wt) were obtained from Charles River (Hollister, Calif.) at embryonic day 3 and allowed to acclimatize until embryonic day 6. […] The fetuses were extracted by cesarean section, and the lungs were snap frozen for later analysis or processed for ATII cell or fibroblast culture. […] Louis, Mo.; 0.25 mg/kg). All studies were approved by the Los Angeles Biomedical Research Institute Institutional Review Board and were conducted in accordance with the National Institutes of Health Guide for the Care and Use of Laboratory Animals. ATII cells were isolated using differential adherence in monolayer culture, as described previously (Battenburg et al. (1990) Biochim. Biophys. Acta 960: 441-456). Briefly, three to five […] used per preparation. The fetuses were delivered via cesarean section, and fetal lungs were placed in Hanks' balanced salt solution without calcium and magnesium. […] A Teflon stirring bar was used to further dissociate the lungs by mechanical disruption of the tissue during incubation in a 37° C. water bath. After the tissue was dispersed into a unicellular suspension, the cells were pelleted at 500 g for 10 min at room temperature in a 50-ml polystyrene centrifuge tube. […] The cell suspension was then added to 75-cm^2 (T-75) culture flasks for 30-60 min to allow for differential adherence of lung fibroblasts. The unattached cells were then transferred to another T-75 culture flask for an additional 60 min. After this second culture period, the medium and nonadherent cells were removed from the flask and diluted with 1 vol of culture medium. This diluted suspension was cultured overnight in a T-75 culture flask at 37° C. in a CO2 incubator to allow the ATII cells to adhere. […] According to the manufacturer's protocol, cell proliferation was determined by the tetrazolium dye assay, which is based on the conversion of a tetrazolium salt to a red formazan product by living cells (Cell Proliferation Assay, Promega)."}, "[10]": {"system": "WI38 cells", "test": "Reversal of nicotine-induced LIF-to-MYF transdifferentiation in WI38 cells, Western analysis", "settings": "GW9662 1×10^−5 M pretreatment; nicotine 1×10^−9 M 7 days", "protocol": "The human embryonic cell line WI38 was obtained from the American Type Culture Collection (Rockville, Md.). Cells were grown in minimum essential medium (MEM) +10% fetal bovine serum at 37° C. in six-well plates, two well slides, and 60-mm and 100-mm culture dishes, as needed. […] Subsequently, the cells were treated with rosiglitazone (RGZ) (1×10^−5 M) (a PPARγ agonist), PTHrP (5×10^−7 M), or DBcAMP (1×10^−5 M) for 7 days, and the expression of PTHrP receptor, PPARγ, ADRP, calponin, and cSMA was determined by Western analysis and immunohistochemistry. Simultaneously, fibroblast function was characterized by measuring their capacity to take up triglycerides. Some experiments were performed in the presence of a specific PPARγ antagonist, GW9662. Medium containing fresh chemicals was added daily, and at the end of the experimental period the cells were processed as needed.\nFor Western blotting, cells were lysed using an extraction buffer [10 mM tris (hydroxymethyl) aminomethane (Tris, pH 7.5), 0.25 M sucrose, 1 mM EDTA, 5 mM benzamidine, 2 mM phenylmethylsulfonyl fluoride, and 10 (j.tg/ml each of pepstatin A, aprotinin, and leupeptin], and centrifuged at 140 g for 10 min (4° C.). Equal amounts of the protein (25 μg) from the supernatant were dissolved in electrophoresis sample buffer and were subjected to sodium dodecyl sulfate-polyacrylamide (4%-12% gradient) gel electrophoresis (SDS-PAGE) followed by electrophoretic transfer to a nitrocellulose memane. The nonspecific binding of antibody was blocked by washing with Tris-buffered saline (TBS) containing 0.1% Tween 20 (TBST) and 5% milk for 1 h. The blot was then subjected to two brief washes with TBST plus 0.5% Tween 20, incubated in TBST plus 0.1% Tween 20 and the specific primary antibodies (PPARγ 1:2000, Alexis Biochemicals, San Diego, Calif.; cSMA 1:50,000, Sigma, St. Louis, Mo.: ADRP 1:3000) overnight at 4° C. Blots were then washed in TBST plus 0.1% Tween 20 and then incubated for 1 h in secondary antibody, washed, and developed with a chemiluminescent substrate [enhanced chemiluminescence (ECL); Amersham, Arlington Heights, Ill.] following the manufacturer's protocol. The densities of the specific protein bands were quantified using a scanning densitometer (Eagle Eye II still video system, Stratagene, La Jolla, Calif.)."}, "[11]": {"system": "ATII cells", "settings": "rat, in vivo"}}, "note": "Where two headings read alike, the source gives them in different places."}
{"compound": "COc1cc2c3cc1Oc1cc(ccc1O)C[C@@H]1c4c(cc(OC)c(O)c4Oc4ccc(cc4)C[C@@H]3N(C)CC2)CC[N+]1(C)C", "note": "[D-tubocurarine]", "values": [{"measurement": "prevention of nicotine-induced decrease in PTHrP binding to its receptor", "setting": "[1]", "result": "prevented"}, {"measurement": "prevention of nicotine-induced decrease in triolein uptake", "setting": "[2]", "result": "completely prevented"}]}
{"compound": "O=C(Nc1ccccc1)c1cc([N+](=O)[O-])ccc1Cl", "note": "[GW9662]", "values": [{"measurement": "effect on nicotine-induced increase (CCT-α experiment)", "setting": "[3]; PGJ2 alone or in combination with GW-9662, in vitro", "result": "no effect"}, {"measurement": "effect on nicotine-induced increase in SP-B expression", "setting": "[3]; in vitro", "result": "unaffected"}, {"measurement": "effect on nicotine-induced increase in phospholipid synthesis", "setting": "[4]; concomitant PGJ2 alone or in combination with GW-9662, in vitro", "result": "no effect"}, {"measurement": "block of the PGJ2 effect in lung explants", "setting": "[5]; nicotine 24 h + PGJ2", "result": "blocked"}, {"measurement": "effect on nicotine-induced increase in phospholipid synthesis", "setting": "[6]; concomitant PGJ2 alone or in combination with GW-9662, in utero", "result": "no effect"}, {"measurement": "effect on nicotine-induced increase (CCT-α experiment)", "setting": "[7]; PGJ2 alone or in combination with GW-9662, in vivo", "result": "no effect"}, {"measurement": "effect on nicotine-induced increase in SP-B protein expression", "setting": "[7]; concomitant treatment, in utero", "result": "no effect"}, {"measurement": "block of the PGJ2 effect on nicotine-induced increase in ATII cell proliferation", "setting": "[8]; GW-9662 0.25 mg/kg pretreatment, nicotine + PGJ2", "result": "almost completely blocked"}, {"measurement": "block of the PGJ2 effect on nicotine-induced increase in ATII cell proliferation", "setting": "[8]; in utero nicotine + PGJ2", "result": 70, "unit": "%"}, {"measurement": "block of the PGJ2 effect", "setting": "[9]; nicotine + PGJ2", "result": "blocked"}, {"measurement": "block of molecular protection by PTHrP, DBcAMP and RGZ against nicotine-induced LIF-to-MYF transdifferentiation (PPARγ, calponin)", "setting": "[10]", "result": "completely blocked"}]}
{"compound": "CCCCC[C@H](O)/C=C/[C@H]1C(=O)C=C[C@@H]1C/C=C\\CCCC(=O)O", "note": "[PGJ2, prostaglandin J2]", "values": [{"measurement": "effect on nicotine-induced increase (CCT-α experiment)", "setting": "[3]", "result": "no effect"}, {"measurement": "effect on nicotine-induced increase in SP-B expression", "setting": "[3]", "result": "unaffected"}, {"measurement": "effect on nicotine-induced increase in phospholipid synthesis", "setting": "[4]", "result": "no effect"}, {"measurement": "block of nicotine-induced alterations in ribose synthesis", "setting": "[11]", "result": "completely blocked"}, {"measurement": "prevention of nicotine-induced changes in de novo palmitate synthesis and acetyl-CoA labeling", "setting": "[11]", "result": "completely prevented"}, {"measurement": "block of nicotine-induced increase in ATII cell proliferation in lung explants", "setting": "[5]", "result": "blocked"}, {"measurement": "effect on nicotine-induced increase in phospholipid synthesis", "setting": "[6]; rat, in vivo", "result": "no effect"}, {"measurement": "effect on nicotine-induced increase (CCT-α experiment)", "setting": "[7]; rat, in vivo", "result": "no effect"}, {"measurement": "effect on nicotine-induced increase in SP-B protein expression", "setting": "[7]; rat, in vivo", "result": "no effect"}, {"measurement": "block of nicotine-induced increase in ATII cell proliferation", "setting": "[8]; rat, in vivo", "result": "completely blocked"}, {"measurement": "block of nicotine-induced increase in ATII proliferation", "setting": "[9]; rat, in vivo", "result": "almost completely blocked"}]}
{"compound": "CNC1(C)C2CCC(C2)C1(C)C", "note": "(centres unmarked) [mecamylamine]", "values": [{"measurement": "prevention of nicotine-induced decrease in PTHrP binding to its receptor", "setting": "[1]; pretreatment with nACh receptor antagonist, nicotine 1×10^−6 M", "result": "not"}, {"measurement": "prevention of nicotine-induced decrease in triolein uptake", "setting": "[2]; nACh receptor antagonist 1×10^−9 or 1×10^−6 M", "result": "not"}]}
{"compound": "PTHrP-(7-34) amide", "values": [{"measurement": "binding of radioactive ligand [125I]-Tyr34-PTHrP-(1-34)", "setting": "[1]; 1 μM", "result": "inhibited"}]}
{"compound": "α-bungarotoxin", "values": [{"measurement": "prevention of nicotine-induced decrease in PTHrP binding to its receptor", "setting": "[1]", "result": "prevented"}, {"measurement": "prevention of nicotine-induced decrease in triolein uptake", "setting": "[2]", "result": "completely prevented"}]}
